In patent publication US20250073209A1, “COVALENT TARGETING OF RhoA FOR CANCER THERAPY” (The University of Hong Kong, priority 2023, published 2025):

Legend:
[1] = tested on: HCT116, HT29 and SW620 cells; experiment: Immunoblotting of cell cycle checkpoint proteins; assay type: cell-based, human; settings: HCT116, HT29 and SW620, 24 h
Method: Anti-RhoA (#2117), anti-GAPDH (#2118), anti-phosphoMLC (#3671), anti-MLC (#3672), anti-FLAG (#8146), anti-GFP (#2956), and anti-GST (#2624) were purchased from Cell Signaling Technology. Cells were washed with PBS and then harvested using cell lysis buffer (1% Triton X100, 10 mM beta glycerol phosphate, 10 mM sodium pyrophosphate, 40 mM HEPES, 4 mM EDTA, pH7.4) with 4% protease/phosphatase inhibitor cocktail (Pierce). Protein samples were quantified using BCA assays (Pierce), normalized and then boiled with 4× Laemmli sampling buffer in 95° C. for 5 mins. Samples were resolved in 10% polyacrylamide gel (Biorad) and then transferred onto PVDF membrane (Biorad) and blocked with blocking buffer (5% bovine serum albumin (BSA) in Tris-buffered saline with 0.1% Tween 20 (TBST)) for 1 h. Membrane was washed in TBST, followed by incubation with corresponding primary antibodies (diluted 1:1000 in 5% BSA/milk in TBST with 1% NaN3) overnight at 4° C. […]
The effects of CL16 treatment on cell cycle checkpoint proteins were investigated with immunoblotting of the cell cycle checkpoint proteins in SW620 and HT29 cells after CL16 treatment for 24 h. […] Caspase- 3/7 Green Detection Reagent was used to study apoptosis in HCT116 cells treated with Rhosin by confocal fluorescence imaging. […]

[2] = tested on: HT29 cells with C16 Å knock-in; experiment: Wound healing assay on HT29 cells with RhoA C16A knock-in; assay type: cell-based, human; settings: 48 h
Method: For wound healing assay, HT29 cells were seeded in 90% confluency, a wound was scratched using a P-20 tip the next day. Cell debris was washed with PBS then aspirated. Then, complete DMEM medium with CL16 or Rhosin with corresponding concentration was added to the cells. Wound closure was recorded every 24 hours under light microscope with 10× objective and measurement of wound area was made by ImageJ.
HT29 cells with RhoA C16 Å knock-in were prepared by BrainVTA using the CRISPR-Cas9 technique. Briefly, HT29 cells were transfected with RhoA construct with mutated loci in CRISPR/Cas9 vector (U6-sa-sgRNA) using PEI. Cells were subsequently selected with 2 μg/mL puromycin and 800 μg/mL neomycin for 2 weeks. Monoclonal cells were then selected, propagated and subjected to Sanger sequencing to validate the homozygous C16 Å amino acid substitution ([…]) in RhoA gene.
The effects of CL16 in HT29 cells expressing RhoA WT protein and HT29 cells with RhoA C16 Å knock-in by CRISPR-Cas9 were investigated, respectively, to validate the molecular mechanism of RhoA inhibition and anti-cancer properties from CL16. […] HT29 cells expressing RhoA WT or C16 Å protein were incubated with solvent vehicle, CL16 or Rhosin in complete medium for 24 h. The cells were then washed, lysed, subjected to rhotekin pull-down and immunoblotted. […]

SW620 xenograft = experiment: Mouse SW620 xenograft model; assay type: in vivo
Method: FIG. 7A is a graph showing inhibition of tumor growth by CL16 in mouse HCT116 xenografts through intraperitoneal injection at 10 mg/kg (n=6 per group). FIG. 7B is a graph showing inhibition of tumor growth by CL16 in mouse HT29 xenografts through intraperitoneal injection at 10 mg/kg (n=7). FIG. 7C is a graph showing the body weight of mice with HT29 xenografts throughout the treatment with CL16. FIG. 7D is a graph showing inhibition of tumor growth by CL16 in mouse SW620 xenografts through intraperitoneal injection at 10 mg/kg (n=6 per group). FIG. 7E is a bar graph showing the tumor weight of harvested tumors from the treated mice with SW620 xenografts. FIG. 7F is a graph showing the body weight of mice with SW620 xenografts throughout the treatment with CL16. Statistical analysis using a two-tailed Student's t-test. *P<0.05.
7-week-old mice with weight around 20 g were inoculated subcutaneously with HCT116 (2×10^6 cells per mouse) or HT29 (3×10^6 cells per mouse) cells, in serum-free RMPI or Matrigel in PBS respectively. […] The tumor volume and body weight of the nude mice were measured throughout the treatment. The tumor volume was calculated by the equation: Volume (mm^3)=1×w^2/2, where 1 and w were the length and width of the tumor. At the end of the treatment, the mice were sacrificed and the tumor weight was measured. […]

RhoA = RhoA (Homo sapiens, UniProt P61586); experiment: GDP-GTP exchange assay (BODIPY-GTP); assay type: biochemical; design: purchased ab101594; settings: fluorescence-based exchange assay
Method: Recombinant human RhoA protein (0.2 μg; ab101594) was incubated with GDP (50 nM) in 100 μL of GTP-exchange buffer (20 mM HEPES, 150 mM NaCl, 5 mM MgCl2, pH 7.4) at room temperature for 1 h. CL16 or solvent control was then added to the solution mixture and incubated at room temperature for another hour. For self-exchange assay, BODIPY-GTP (100 nM) was added to the solution and the fluorescence from plate was measured every 30 s. For LARG-mediated GDP-to-GTP exchange, BODIPY-GTP (100 nM) and LARG DH-PH protein (30 nM) were added to the solution mixture and the fluorescence from plate was measured every 30 s. BODIPY-GTP was excited at 477±14 nm and its fluorescence was measured at 525±30 nm using a plate reader (Clariostar).

Chain of RhoA (P61586 whole entry): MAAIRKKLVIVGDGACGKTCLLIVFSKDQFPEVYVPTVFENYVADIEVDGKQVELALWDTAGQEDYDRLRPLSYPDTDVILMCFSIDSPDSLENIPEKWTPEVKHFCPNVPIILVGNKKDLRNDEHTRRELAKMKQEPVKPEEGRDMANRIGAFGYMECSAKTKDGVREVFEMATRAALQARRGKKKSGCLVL

O=C(CCl)N1N=C(c2cc3ccccc3o2)CC1c1ccco1 (stereo not shown) [CL16]
cyclin A2 and cyclin B1 levels [1]: no significant changes
p21 and p27 protein levels [1]: increase in p21 and p27 protein levels
cell migration [2]: no inhibitory effects
body weight, treated vs untreated (SW620 xenograft; SW620 xenografts, FIG. 7F): no observable difference
tumor growth vs vehicle control (SW620 xenograft; nude mice, 10 mg/kg intraperitoneal): significantly inhibited tumor growth
GDP-to-GTP self-exchange (RhoA): significant decreases
LARG-mediated GDP-to-GTP exchange (RhoA): significant decreases
